What follows are molecules tested against T1, T1R umami taste receptor (Homo sapiens, UniProt Q7RTX0+Q7RTX1) (assay: in vitro cell-based assay, cells expressing the T1R umami taste receptor; enhancement of MSG). Conditions: MSG enhancement ratio at a particular concentration (concentration not given).
T1 sequence (Q7RTX1 21-841): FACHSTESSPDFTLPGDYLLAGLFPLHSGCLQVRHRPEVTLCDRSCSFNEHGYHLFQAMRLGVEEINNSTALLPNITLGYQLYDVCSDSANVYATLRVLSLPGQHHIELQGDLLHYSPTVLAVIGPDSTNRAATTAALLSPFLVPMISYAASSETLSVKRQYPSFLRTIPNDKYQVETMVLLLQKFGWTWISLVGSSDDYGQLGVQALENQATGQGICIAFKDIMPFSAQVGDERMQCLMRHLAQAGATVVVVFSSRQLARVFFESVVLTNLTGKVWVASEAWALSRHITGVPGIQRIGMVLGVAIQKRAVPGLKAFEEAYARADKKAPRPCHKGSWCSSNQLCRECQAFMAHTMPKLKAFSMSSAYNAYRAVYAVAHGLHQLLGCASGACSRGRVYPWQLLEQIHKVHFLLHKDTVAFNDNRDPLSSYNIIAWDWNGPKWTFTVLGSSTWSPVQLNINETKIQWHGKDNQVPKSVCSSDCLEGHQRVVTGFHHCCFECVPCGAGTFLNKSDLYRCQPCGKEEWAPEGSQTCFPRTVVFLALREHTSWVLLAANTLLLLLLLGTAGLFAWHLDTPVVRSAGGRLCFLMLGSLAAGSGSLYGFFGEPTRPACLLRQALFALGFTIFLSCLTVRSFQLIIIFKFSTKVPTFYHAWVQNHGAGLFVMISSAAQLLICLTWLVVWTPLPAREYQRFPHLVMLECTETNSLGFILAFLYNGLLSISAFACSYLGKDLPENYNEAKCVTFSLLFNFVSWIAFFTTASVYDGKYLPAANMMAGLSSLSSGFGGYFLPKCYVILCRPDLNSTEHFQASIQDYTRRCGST
T1 sequence (Q7RTX0 21-852): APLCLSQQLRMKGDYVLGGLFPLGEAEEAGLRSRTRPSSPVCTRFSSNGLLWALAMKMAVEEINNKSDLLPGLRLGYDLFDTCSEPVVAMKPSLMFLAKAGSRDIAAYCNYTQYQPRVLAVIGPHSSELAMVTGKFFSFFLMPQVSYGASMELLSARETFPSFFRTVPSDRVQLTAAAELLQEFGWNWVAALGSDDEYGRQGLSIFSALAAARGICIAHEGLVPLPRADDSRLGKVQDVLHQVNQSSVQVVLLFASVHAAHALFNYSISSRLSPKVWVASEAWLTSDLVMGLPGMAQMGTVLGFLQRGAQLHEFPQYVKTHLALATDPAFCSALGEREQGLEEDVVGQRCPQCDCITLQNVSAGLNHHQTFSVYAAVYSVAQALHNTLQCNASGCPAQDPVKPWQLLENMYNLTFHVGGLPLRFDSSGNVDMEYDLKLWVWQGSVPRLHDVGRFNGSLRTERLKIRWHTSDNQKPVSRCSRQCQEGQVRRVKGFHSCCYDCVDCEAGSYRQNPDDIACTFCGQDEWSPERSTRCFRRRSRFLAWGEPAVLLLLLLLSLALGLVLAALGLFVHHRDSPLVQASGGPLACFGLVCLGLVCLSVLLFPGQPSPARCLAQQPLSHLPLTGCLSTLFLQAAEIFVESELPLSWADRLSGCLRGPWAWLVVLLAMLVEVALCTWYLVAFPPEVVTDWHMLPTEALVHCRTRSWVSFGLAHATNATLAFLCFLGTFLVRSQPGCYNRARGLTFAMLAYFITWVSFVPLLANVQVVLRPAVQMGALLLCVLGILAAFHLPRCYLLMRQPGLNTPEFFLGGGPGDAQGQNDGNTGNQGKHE
Protocol: Each of Compounds 101-145 was synthesized according to one of the general procedures set forth above in Examples 1 and Example 2. Thereafter, the compounds were tested in an in vitro cell-based assay having cells that express the T1R umami taste receptor. Dose-binding curves were recorded and the EC50 was determined for enhancement of MSG binding. Table 2 sets forth the calculated EC50 values for certain tested compounds as well as the MSG enhancement ratio at a particular concentration.

Going from `COc1ccc(/C=C/C(=O)N[C@H](CC(C)C)C(=O)O)cc1` [Compound 137, (E)-(3-(4-methoxyphenyl)acryloyl)-D-leucine] to `COc1ccc(/C=C/C(=O)N[C@@H](CC(C)C)C(=O)O)cc1` [Compound 138, (E)-(3-(4-methoxyphenyl)acryloyl)-L-leucine], the “MSG Enh. Ratio” value falls from 4.7 to 1.0.

Going from `CC[C@H](C)[C@H](NC(=O)/C=C/c1ccc(OC)cc1)C(=O)O` [Compound 139, ((E)-3-(4-methoxyphenyl)acryloyl)-L-isoleucine] to `COc1ccc(/C=C/C(=O)N[C@@H](CCC(=O)O)C(=O)O)cc1` [Compound 142, (E)-(3-(4-methoxyphenyl)acryloyl)-L-glutamic acid], the “MSG Enh. Ratio” value rises from 1.5 to 2.2.

Going from `COc1ccc(/C=C/C(=O)N[C@@H](Cc2ccc(OC)cc2)C(=O)O)cc1` [Compound 140, (S,E)-3-(4-methoxyphenyl)-2-(3-(4-methoxyphenyl)acrylamido)propanoic acid] to `COc1ccc(C[C@H](NC(=O)/C=C/c2ccc(OC)c(OC)c2)C(=O)O)cc1` [Compound 141, (S,E)-2-(3-(3,4-dimethoxyphenyl)acrylamido)-3-(4-methoxyphenyl)propanoic acid], the “MSG Enh. Ratio” value falls from 1.8 to 1.6.

`COc1ccc(/C=C/C(=O)N[C@@H](CCC(=O)O)C(=O)O)cc1O` [Compound 143, (E)-(3-(3-hydroxy-4-methoxyphenyl)acryloyl)-L-glutamic acid] and `CC(C)/C=C/C(=O)N[C@@H](CCC(=O)O)C(=O)O` [Compound 145, (E)-(4-methylpent-2-enoyl)-L-glutamic acid] are the same in “MSG Enh. Ratio” value: 1.0 for the first, 1.0 for the second.

Same assay, conditions: cells that express the T1R umami taste receptor; dose-binding curves

`COc1ccc(/C=C/C(=O)N[C@H](C(=O)O)C(C)C)cc1` [Compound 136, (E)-(3-(4-methoxyphenyl)acryloyl)-L-valine] and `CC[C@H](C)[C@H](NC(=O)/C=C/c1ccc(OC)cc1)C(=O)O` [Compound 139, ((E)-3-(4-methoxyphenyl)acryloyl)-L-isoleucine] cannot be ordered by EC50: > 50 µM for the first, > 50 µM for the second.

Compared with `COc1ccc(/C=C/C(=O)N[C@H](CC(C)C)C(=O)O)cc1` [Compound 137, (E)-(3-(4-methoxyphenyl)acryloyl)-D-leucine], `COc1ccc(/C=C/C(=O)N[C@@H](CC(C)C)C(=O)O)cc1` [Compound 138, (E)-(3-(4-methoxyphenyl)acryloyl)-L-leucine] is higher in EC50: 7.74 µM for the first, > 50 µM for the second. The first is the more potent here.

`COc1ccc(/C=C/C(=O)N[C@@H](Cc2ccc(OC)cc2)C(=O)O)cc1` [Compound 140, (S,E)-3-(4-methoxyphenyl)-2-(3-(4-methoxyphenyl)acrylamido)propanoic acid] and `COc1ccc(C[C@H](NC(=O)/C=C/c2ccc(OC)c(OC)c2)C(=O)O)cc1` [Compound 141, (S,E)-2-(3-(3,4-dimethoxyphenyl)acrylamido)-3-(4-methoxyphenyl)propanoic acid] cannot be ordered by EC50: > 50 µM for the first, > 50 µM for the second.

`COc1ccc(/C=C/C(=O)N[C@@H](CCC(=O)O)C(=O)O)cc1` [Compound 142, (E)-(3-(4-methoxyphenyl)acryloyl)-L-glutamic acid] and `COc1ccc(/C=C/C(=O)N[C@@H](CCC(=O)O)C(=O)O)cc1O` [Compound 143, (E)-(3-(3-hydroxy-4-methoxyphenyl)acryloyl)-L-glutamic acid] cannot be ordered by EC50: > 50 µM for the first, > 50 µM for the second.

`COc1ccc(/C=C/C(=O)N[C@H](CCC(=O)O)C(=O)O)cc1O` [Compound 144, (E)-(3-(3-hydroxy-4-methoxyphenyl)acryloyl)-D-glutamic acid] and `CC(C)/C=C/C(=O)N[C@@H](CCC(=O)O)C(=O)O` [Compound 145, (E)-(4-methylpent-2-enoyl)-L-glutamic acid] cannot be ordered by EC50: > 50 µM for the first, > 50 µM for the second.

— patent publication US20250176598A1, “AMIDE COMPOUNDS AND THEIR USE AS FLAVOR MODIFIERS” (Firmenich Incorporated, priority 2022, published 2025)
